In brackets after ≈: the same amount, converted by molar mass.
Experiments:
Type in all cases: cell-based
[1] = tested on: Staphylococcus aureus ATCC 6538P; assay: MIC, Staphylococcus aureus ATCC 6538P (SA(1)); conditions: Staphylococcus aureus ATCC 6538P; for MIC: Staphylococcus aureus, ATCC6538P, read-out: MIC SA (1)
From the text: (§1) The minimum inhibitory concentrations (MIC: mcg/ml) of the erythromycin derivatives of the present invention and the control erythromycin derivative (*) as the known growth promoting agent on typical test bacteria are shown in the following Tables 1 to 5.
SA(1): Staphylococcus aureus ATCC 6538P

[2] = tested on: Staphylococcus aureus FDA 209P; assay: MIC, Staphylococcus aureus FDA 209P (SA(2)); conditions: Staphylococcus aureus, FDA209P, Staphylococcus aureus FDA 209P; read-out: MIC SA (2)
From the text: as §1
SA(2): Staphylococcus aureus FDA 209P

Bacillus subtilis = assay: MIC, Bacillus subtilis (BS); conditions: for MIC: read-out: MIC BS
Bacillus cereus IFO 3001 = assay: MIC, Bacillus cereus IFO 3001 (BC); conditions: for MIC: Bacillus cereus, IFO3001, Bacillus cereus IFO 3001, read-out: MIC BC
Escherichia coli NIHJ = assay: MIC, Escherichia coli NIHJ (EC)
[3] = tested on: Klebsiella pneumoniae ATCC 10031; assay: MIC, Klebsiella pneumoniae ATCC 10031 (KP); conditions: Klebsiella pneumoniae ATCC 10031; for MIC: ATCC10031, read-out: MIC KP

Structure (SMILES)	MIC [1]	MIC [2]	MIC (Bacillus subtilis)	MIC (Bacillus cereus IFO 3001)	MIC (Escherichia coli NIHJ)	MIC [3]	MIC SA (1) [1]	MIC BS (Bacillus subtilis)	MIC BC (Bacillus cereus IFO 3001; Bacillus cereus IFO 3001)	MIC EC (Escherichia coli NIHJ)	MIC KP [3]
CC[C@H]1OC(=O)[C@H](C)[C@@H](O[C@H]2C[C@@](C)(OC)[C@@H](O)[C@H](C)O2)[C@H](C)[C@@H](O[C@@H]2O[C@H](C)C[C@H](N(C)C)[C@H]2O)[C@@]2(C)CC(C)C3(O[C@@]1(C)[C@H](O)[C@H]3C)O2 (stereo partly drawn) [*2 (EM202), Anhydroerythromycin A, reference compound]	12.5 µg/mL (≈ 17.5 µM)	12.5 µg/mL (≈ 17.5 µM)	–	–	–	–	–	–	–	–	–
CC[C@H]1OC(=O)[C@H](C)[C@@H](O[C@H]2C[C@@](C)(OC)[C@@H](O)[C@H](C)O2)[C@H](C)[C@@H](O[C@@H]2O[C@H](C)C[C@H]([N+](C)(C)C)[C@H]2O)[C@@]2(C)CC(C)C3(O[C@@]1(C)[C@H](O)[C@H]3C)O2 (stereo partly drawn) [Compound 70]	> 100 µg/mL	> 100 µg/mL	> 100 µg/mL	> 100 µg/mL	> 100 µg/mL	> 100 µg/mL	–	–	–	–	–
C#CC[N+](C)(C)C1CC(C)OC(OC2C(C)C(OC3CC(C)(OC)C(O)C(C)O3)C(C)C(=O)OC(CC)C3(C)OC(=O)OC3C(C)C3=C(C)CC2(C)O3)C1O (stereo not drawn) [Compound 57]	25 µg/mL	50 µg/mL	50 µg/mL	25 µg/mL	> 100 µg/mL	> 100 µg/mL	–	–	–	–	–
C#CC[N+](C)(C)C1CC(C)OC(OC2C(C)C(OC3CC(C)(OC)C(O)C(C)O3)C(C)C(=O)OC(CC)C(C)(O)C(O)C(C)C3=C(C)CC2(C)O3)C1O (stereo not drawn) [Compound 27]	100 µg/mL	100 µg/mL	100 µg/mL	100 µg/mL	> 100 µg/mL	> 100 µg/mL	–	–	–	–	–
CCC1OC(=O)C(C)C(OC2CC(C)(OC)C(O)C(C)O2)C(C)C(OC2OC(C)CC([N+](C)(C)CC)C2O)C2(C)CC(C)=C(O2)C(C)C(OS(C)(=O)=O)C1(C)O (stereo not drawn) [Compound 18]	> 100 µg/mL	> 100 µg/mL	> 100 µg/mL	> 100 µg/mL	> 100 µg/mL	> 100 µg/mL	–	–	–	–	–
CCC1OC(=O)C(C)C(OC2CC(C)(OC)C(OC=O)C(C)O2)C(C)C(OC2OC(C)CC([N+](C)(C)C)C2O)C2(C)CC(C)=C(O2)C(C)C(OS(C)(=O)=O)C1(C)O (stereo not drawn) [Compound 4]	> 100 µg/mL	> 100 µg/mL	> 100 µg/mL	> 100 µg/mL	> 100 µg/mL	> 100 µg/mL	–	–	–	–	–
CC[C@H]1OC(=O)[C@H](C)[C@@H](O[C@H]2C[C@@](C)(OC)[C@@H](O)[C@H](C)O2)[C@H](C)[C@@H](O[C@@H]2O[C@H](C)C[C@H]([N+](C)(C)CC)[C@H]2O)[C@@]2(C)CC(C)C3(O[C@@]1(C)[C@H](O)[C@H]3C)O2 (stereo partly drawn) [Compound 71]	> 100 µg/mL	> 100 µg/mL	100 µg/mL	100 µg/mL	> 100 µg/mL	> 100 µg/mL	–	–	–	–	–
CCC1OC(=O)C(C)C(OC2CC(C)(OC)C(O)C(C)O2)C(C)C(OC2OC(C)CC(N(CC)CC)C2O)C2(C)CC(C)=C(O2)C(C)C(O)C1(C)O (stereo not drawn) [Compound 20]	> 100 µg/mL	> 100 µg/mL	> 100 µg/mL	> 100 µg/mL	> 100 µg/mL	> 100 µg/mL	–	–	–	–	–
CCC1OC(=O)C(C)C(OC2CC(C)(OC)C(O)C(C)O2)C(C)C(OC2OC(C)CC([N+](C)(C)C)C2O)C2(C)CC(C)=C(O2)C(C)C(O)C1(C)O (stereo not drawn) [Compound 1]	> 100 µg/mL	> 100 µg/mL	> 100 µg/mL	> 100 µg/mL	> 100 µg/mL	> 100 µg/mL	–	–	–	–	–
CCC1OC(=O)C(C)C(OC2CC(C)(OC)C(O)C(C)O2)C(C)C(OC2OC(C)CC(N3CCCC3)C2O)C2(C)CC(C)=C(O2)C(C)C(O)C1(C)O (stereo not drawn) [Compound 13]	> 100 µg/mL	> 100 µg/mL	> 100 µg/mL	> 100 µg/mL	> 100 µg/mL	> 100 µg/mL	–	–	–	–	–
C#CC[N+](C)(C)C1CC(C)OC(OC2C(C)C(OC3CC(C)(OC)C(O)C(C)O3)C(C)C(=O)OC(CC)C3(C)OB(c4ccccc4)OC3C(C)C3=C(C)CC2(C)O3)C1O (stereo not drawn) [Compound 56]	50 µg/mL	100 µg/mL	50 µg/mL	100 µg/mL	> 100 µg/mL	> 100 µg/mL	–	–	–	–	–
CCC1OC(=O)C(C)C(OC2CC(C)(OC)C(O)C(C)O2)C(C)C(OC2OC(C)CC([N+](C)(C)CC)C2O)C2(C)CC(C)=C(O2)C(C)C(OC(C)=O)C1(C)OC(C)=O (stereo not drawn) [Compound 29]	100 µg/mL	50 µg/mL	100 µg/mL	100 µg/mL	> 100 µg/mL	> 100 µg/mL	–	–	–	–	–
CCC[N+](C)(C)C1CC(C)OC(OC2C(C)C(OC3CC(C)(OC)C(O)C(C)O3)C(C)C(=O)OC(CC)C(C)(O)C(O)C(C)C3=C(C)CC2(C)O3)C1O (stereo not drawn) [Compound 6]	> 100 µg/mL	> 100 µg/mL	> 100 µg/mL	> 100 µg/mL	> 100 µg/mL	> 100 µg/mL	–	–	–	–	–
CCC[N+](C)(C)[C@H]1C[C@@H](C)O[C@@H](O[C@@H]2[C@@H](C)[C@H](O[C@H]3C[C@@](C)(OC)[C@@H](O)[C@H](C)O3)[C@@H](C)C(=O)O[C@H](CC)[C@@](C)(O)[C@H](O)[C@@H](C)C3O[C@]2(C)CC3C)[C@@H]1O (stereo partly drawn) [Compound 64]	> 100 µg/mL	> 100 µg/mL	> 100 µg/mL	> 100 µg/mL	> 100 µg/mL	> 100 µg/mL	–	–	–	–	–
C#CC[N+](C)(C)[C@H]1C[C@@H](C)O[C@@H](O[C@@H]2[C@@H](C)[C@H](O[C@H]3C[C@@](C)(OC)[C@@H](O)[C@H](C)O3)[C@@H](C)C(=O)O[C@H](CC)[C@@](C)(O)[C@H](O)[C@@H](C)C3O[C@]2(C)CC3C)[C@@H]1OC(C)=O (stereo partly drawn) [Compound 68]	> 100 µg/mL	> 100 µg/mL	> 100 µg/mL	> 100 µg/mL	> 100 µg/mL	> 100 µg/mL	–	–	–	–	–
CCC1OC(=O)C(C)C(OC2CC(C)(OC)C(O)C(C)O2)C(C)C(OC2OC(C)CC(N3CCCCC3)C2O)C2(C)CC(C)=C(O2)C(C)C(O)C1(C)O (stereo not drawn) [Compound 22]	> 100 µg/mL	> 100 µg/mL	> 100 µg/mL	> 100 µg/mL	> 100 µg/mL	> 100 µg/mL	–	–	–	–	–
C=CC[N+](C)(C)[C@H]1C[C@@H](C)O[C@@H](O[C@@H]2[C@@H](C)[C@H](O[C@H]3C[C@@](C)(OC)[C@@H](O)[C@H](C)O3)[C@@H](C)C(=O)O[C@H](CC)[C@@](C)(O)[C@H](O)[C@@H](C)C3O[C@]2(C)CC3C)[C@@H]1O (stereo partly drawn) [Compound 66]	100 µg/mL	100 µg/mL	100 µg/mL	100 µg/mL	> 100 µg/mL	> 100 µg/mL	–	–	–	–	–
CCC1OC(=O)C(C)C(OC2CC(C)(OC)C(O)C(C)O2)C(C)C(OC2OC(C)CC(N(C)CC)C2O)C2(C)CC(C)=C(O2)C(C)C(O)C1(C)O (stereo not drawn) [Compound 10]	> 100 µg/mL	> 100 µg/mL	> 100 µg/mL	> 100 µg/mL	> 100 µg/mL	> 100 µg/mL	–	–	–	–	–
C#CCN(CC=C)C1CC(C)OC(OC2C(C)C(OC3CC(C)(OC)C(O)C(C)O3)C(C)C(=O)OC(CC)C(C)(O)C(O)C(C)C3=C(C)CC2(C)O3)C1O (stereo not drawn) [Compound 42]	> 100 µg/mL	> 100 µg/mL	> 100 µg/mL	> 100 µg/mL	> 100 µg/mL	> 100 µg/mL	–	–	–	–	–
CCC1OC(=O)C(C)C(OC2CC(C)(OC)C(O)C(C)O2)C(C)C(OC2OC(C)CC([N+](C)(CC)CC)C2O)C2(C)CC(C)=C(O2)C(C)C(O)C1(C)O (stereo not drawn) [Compound 12]	> 100 µg/mL	> 100 µg/mL	> 100 µg/mL	> 100 µg/mL	> 100 µg/mL	> 100 µg/mL	–	–	–	–	–
CCC1OC(=O)C(C)C(OC2CC(C)(OC)C(O)C(C)O2)C(C)C(OC2OC(C)CC([N+](CC)(CC)CC)C2O)C2(C)CC(C)=C(O2)C(C)C(O)C1(C)O (stereo not drawn) [Compound 23]	> 100 µg/mL	> 100 µg/mL	> 100 µg/mL	> 100 µg/mL	> 100 µg/mL	> 100 µg/mL	–	–	–	–	–
CCC1OC(=O)C(C)C(OC2CC(C)(OC)C(O)C(C)O2)C(C)C(OC2OC(C)CC([N+]3(CC)CCCC3)C2O)C2(C)CC(C)=C(O2)C(C)C(O)C1(C)O (stereo not drawn) [Compound 24]	> 100 µg/mL	> 100 µg/mL	> 100 µg/mL	> 100 µg/mL	> 100 µg/mL	> 100 µg/mL	–	–	–	–	–
CCC1OC(=O)C(C)C(OC2CC(C)(OC)C(O)C(C)O2)C(C)C(OC2OC(C)CC(N(C)CC)C2O)C2(C)CC(C)=C(O2)C(C)C(OC(C)=O)C1(C)OC(C)=O (stereo not drawn) [Compound 53]	> 100 µg/mL	> 100 µg/mL	> 100 µg/mL	> 100 µg/mL	> 100 µg/mL	> 100 µg/mL	–	–	–	–	–
CCC[N+](C)(C)[C@H]1C[C@@H](C)O[C@@H](O[C@@H]2[C@@H](C)[C@H](O[C@H]3C[C@@](C)(OC)[C@@H](O)[C@H](C)O3)[C@@H](C)C(=O)O[C@H](CC)[C@@]3(C)OC4(O[C@]2(C)CC4C)[C@H](C)[C@H]3O)[C@@H]1O (stereo partly drawn) [Compound 72]	> 100 µg/mL	> 100 µg/mL	> 100 µg/mL	> 100 µg/mL	> 100 µg/mL	> 100 µg/mL	–	–	–	–	–
CCC1OC(=O)C(C)C(OC2CC(C)(OC)C(O)C(C)O2)C(C)C(OC2OC(C)CC([N+](C)(C)CC)C2O)C2(C)CC(C)=C(O2)C(C)C(O)C1(C)O (stereo not drawn) [Compound 19]	–	–	–	–	–	–	> 100 µg/mL	> 100 µg/mL	> 100 µg/mL	> 100 µg/mL	> 100 µg/mL
CCC1OC(=O)C(C)C(OC2CC(C)(OC)C(O)C(C)O2)C(C)C(OC2OC(C)CC([N+](C)(C)CC3CC3)C2O)C2(C)CC(C)=C(O2)C(C)C(O)C1(C)O (stereo not drawn) [Compound 50]	100 µg/mL	> 100 µg/mL	> 100 µg/mL	–	> 100 µg/mL	> 100 µg/mL	–	–	–	–	–
